Experimental data as given in ChEMBL document CHEMBL4396916, “Novel potent substituted 4-amino-2-thiopyrimidines as dual VEGFR-2 and BRAF kinase inhibitors” (Eur J Med Chem, 2019).

How the values were obtained:
[1] = target: Mast/stem cell growth factor receptor Kit (Homo sapiens, UniProt P10721); test: Inhibition of c-kit (unknown origin)
UACC-257 = test: Growth inhibition of human UACC257 cells at 10 uM incubated for 48 hrs by sulforhodamine B assay relative to control; format: functional; conditions: UACC-257, 48 h, read-out: GI
SF-268 = test: Growth inhibition of human SF268 cells at 10 uM incubated for 48 hrs by sulforhodamine B assay relative to control; format: functional; conditions: SF-268, 48 h, read-out: GI
HOP-92 = test: Growth inhibition of human HOP92 cells at 10 uM incubated for 48 hrs by sulforhodamine B assay relative to control; format: functional; conditions: HOP-92, 48 h, read-out: GI
A498 = test: Growth inhibition of human A498 cells at 10 uM incubated for 48 hrs by sulforhodamine B assay relative to control; format: functional; conditions: A498, 48 h, read-out: GI
UACC-62 = test: Growth inhibition of human UACC62 cells at 10 uM incubated for 48 hrs by sulforhodamine B assay relative to control; format: functional; conditions: UACC-62, 48 h, read-out: GI
ACHN = test: Growth inhibition of human ACHN cells at 10 uM incubated for 48 hrs by sulforhodamine B assay relative to control; format: functional; conditions: read-out: GI
MDA-MB-468 = test: Growth inhibition of human MDA-MB-468 cells at 10 uM incubated for 48 hrs by sulforhodamine B assay relative to control; format: functional; conditions: MDA-MB-468, 48 h, read-out: GI
MCF7 [2] = test: Inhibition of VEGFR2 level in human MCF7 cells at 10 uM measured after 48 hrs by ELISA relative to control; format: functional; conditions: MCF7, 48 h
RXF 393 = test: Growth inhibition of human RXF393 cells at 10 uM incubated for 48 hrs by sulforhodamine B assay relative to control; format: functional; conditions: RXF 393, 48 h, read-out: GI
SNB-19 = test: Growth inhibition of human SNB19 cells at 10 uM incubated for 48 hrs by sulforhodamine B assay relative to control; format: functional; conditions: SNB-19, 48 h, read-out: GI
MCF7 [3] = test: Cytotoxicity against human MCF7 cells expressing VEGFR2 and wild type BRAF measured after 48 hrs by sulforhodamine B assay; format: functional, cell-based; conditions: MCF7, 48 h
SNB-75 = test: Growth inhibition of human SNB75 cells at 10 uM incubated for 48 hrs by sulforhodamine B assay relative to control; format: functional; conditions: SNB-75, 48 h, read-out: GI
[4] = target: Platelet-derived growth factor receptor beta (Homo sapiens, UniProt P09619); test: Inhibition of PDGFR beta (unknown origin)
Sequence of Platelet-derived growth factor receptor beta (P09619 whole entry): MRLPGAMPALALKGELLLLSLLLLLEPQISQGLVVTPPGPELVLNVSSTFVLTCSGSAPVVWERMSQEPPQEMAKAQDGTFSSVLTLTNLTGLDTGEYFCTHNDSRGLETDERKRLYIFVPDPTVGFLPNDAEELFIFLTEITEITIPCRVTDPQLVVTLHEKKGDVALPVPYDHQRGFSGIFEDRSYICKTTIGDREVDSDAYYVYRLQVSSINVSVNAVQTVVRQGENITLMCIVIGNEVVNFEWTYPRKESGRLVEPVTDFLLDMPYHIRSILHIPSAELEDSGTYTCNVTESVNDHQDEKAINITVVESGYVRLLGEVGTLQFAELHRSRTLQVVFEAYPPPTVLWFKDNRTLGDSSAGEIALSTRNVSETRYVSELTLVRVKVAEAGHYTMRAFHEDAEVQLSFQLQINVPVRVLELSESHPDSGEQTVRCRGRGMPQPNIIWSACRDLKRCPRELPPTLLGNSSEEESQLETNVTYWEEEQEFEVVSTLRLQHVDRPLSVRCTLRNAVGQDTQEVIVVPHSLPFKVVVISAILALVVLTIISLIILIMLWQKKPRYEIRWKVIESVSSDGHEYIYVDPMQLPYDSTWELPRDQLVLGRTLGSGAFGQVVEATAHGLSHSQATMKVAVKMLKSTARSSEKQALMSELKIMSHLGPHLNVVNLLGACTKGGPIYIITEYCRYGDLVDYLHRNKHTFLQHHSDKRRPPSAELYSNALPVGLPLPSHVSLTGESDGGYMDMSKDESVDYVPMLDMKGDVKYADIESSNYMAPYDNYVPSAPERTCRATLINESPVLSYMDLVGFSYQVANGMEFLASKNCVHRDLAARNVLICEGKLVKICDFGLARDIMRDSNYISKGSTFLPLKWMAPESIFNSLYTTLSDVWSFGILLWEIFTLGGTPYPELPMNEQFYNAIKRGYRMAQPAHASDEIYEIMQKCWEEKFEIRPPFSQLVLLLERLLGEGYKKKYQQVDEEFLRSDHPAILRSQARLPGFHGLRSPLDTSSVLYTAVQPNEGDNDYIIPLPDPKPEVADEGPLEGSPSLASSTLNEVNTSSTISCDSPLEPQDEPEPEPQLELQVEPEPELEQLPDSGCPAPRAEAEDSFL

OVCAR-4 = test: Growth inhibition of human OVCAR4 cells at 10 uM incubated for 48 hrs by sulforhodamine B assay relative to control; format: functional; conditions: OVCAR-4, 48 h, read-out: GI
Hs-578T = test: Growth inhibition of human Hs578T cells at 10 uM incubated for 48 hrs by sulforhodamine B assay relative to control; format: functional; conditions: read-out: GI
TK-10 = test: Growth inhibition of human TK10 cells at 10 uM incubated for 48 hrs by sulforhodamine B assay relative to control; format: functional; conditions: TK-10, 48 h, read-out: GI
IGROV-1 = test: Growth inhibition of human IGROV1 cells at 10 uM incubated for 48 hrs by sulforhodamine B assay relative to control; format: functional; conditions: IGROV-1, 48 h, read-out: GI
M14 = test: Growth inhibition of human M14 cells at 10 uM incubated for 48 hrs by sulforhodamine B assay relative to control; format: functional; conditions: M14, 48 h, read-out: GI
SF-295 = test: Growth inhibition of human SF295 cells at 10 uM incubated for 48 hrs by sulforhodamine B assay relative to control; format: functional; conditions: SF-295, 48 h, read-out: GI
SF-539 = test: Growth inhibition of human SF539 cells at 10 uM incubated for 48 hrs by sulforhodamine B assay relative to control; format: functional; conditions: SF-539, 48 h, read-out: GI
HL-60(TB) = test: Growth inhibition of human HL-60(TB) cells at 10 uM incubated for 48 hrs by sulforhodamine B assay relative to control; format: functional; conditions: HL-60, 48 h, read-out: GI
SW-620 = test: Growth inhibition of human SW620 cells at 10 uM incubated for 48 hrs by sulforhodamine B assay relative to control; format: functional; conditions: SW-620, 48 h, read-out: GI
COLO 205 = test: Growth inhibition of human COLO205 cells at 10 uM incubated for 48 hrs by sulforhodamine B assay relative to control; format: functional; conditions: COLO 205, 48 h, read-out: GI
A549 = test: Growth inhibition of human A549/ATCC cells at 10 uM incubated for 48 hrs by sulforhodamine B assay relative to control; format: functional; conditions: A549, 48 h, read-out: GI
HT-29 = test: Growth inhibition of human HT-29 cells at 10 uM incubated for 48 hrs by sulforhodamine B assay relative to control; format: functional; conditions: HT-29, 48 h, read-out: GI
HCT-15 = test: Growth inhibition of human HCT15 cells at 10 uM incubated for 48 hrs by sulforhodamine B assay relative to control; format: functional; conditions: HCT-15, 48 h, read-out: GI
KM12 = test: Growth inhibition of human KM12 cells at 10 uM incubated for 48 hrs by sulforhodamine B assay relative to control; format: functional; conditions: KM12, 48 h, read-out: GI

Sequence of Mast/stem cell growth factor receptor Kit (P10721 whole entry): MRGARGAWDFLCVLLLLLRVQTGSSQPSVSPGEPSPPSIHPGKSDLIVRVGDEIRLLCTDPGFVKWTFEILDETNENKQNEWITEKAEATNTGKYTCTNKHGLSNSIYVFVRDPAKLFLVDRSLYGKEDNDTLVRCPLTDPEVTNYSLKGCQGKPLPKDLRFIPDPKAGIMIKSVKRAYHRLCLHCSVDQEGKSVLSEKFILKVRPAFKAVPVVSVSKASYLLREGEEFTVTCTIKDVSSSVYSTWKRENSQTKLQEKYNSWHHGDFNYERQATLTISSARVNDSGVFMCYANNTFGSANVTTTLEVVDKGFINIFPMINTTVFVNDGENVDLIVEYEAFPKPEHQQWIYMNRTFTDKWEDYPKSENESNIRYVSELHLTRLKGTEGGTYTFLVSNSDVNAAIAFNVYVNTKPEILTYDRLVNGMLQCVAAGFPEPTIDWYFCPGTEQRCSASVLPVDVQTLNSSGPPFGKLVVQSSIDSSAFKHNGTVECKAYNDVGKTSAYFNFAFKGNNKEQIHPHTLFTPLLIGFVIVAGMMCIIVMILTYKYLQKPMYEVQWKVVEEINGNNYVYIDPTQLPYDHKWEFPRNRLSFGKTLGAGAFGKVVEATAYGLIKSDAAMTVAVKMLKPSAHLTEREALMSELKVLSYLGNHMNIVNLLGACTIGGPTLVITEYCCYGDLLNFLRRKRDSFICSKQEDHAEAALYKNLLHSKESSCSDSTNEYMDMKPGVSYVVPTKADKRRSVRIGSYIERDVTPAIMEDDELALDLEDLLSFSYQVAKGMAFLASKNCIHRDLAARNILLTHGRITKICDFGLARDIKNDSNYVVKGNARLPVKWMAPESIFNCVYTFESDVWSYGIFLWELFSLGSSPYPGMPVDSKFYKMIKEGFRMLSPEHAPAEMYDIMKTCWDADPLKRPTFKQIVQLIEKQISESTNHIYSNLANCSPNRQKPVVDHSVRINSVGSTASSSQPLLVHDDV

O=C(CSc1nccc(Nc2ccc(N3CCOCC3)cc2)n1)c1ccc(F)cc1
IC50 [1]: 0.25 µM
inhibition of growth at 10 µM (UACC-257): 19%
inhibition of growth at 10 µM (SF-268): 35%
inhibition of growth at 10 µM (HOP-92): 26%
inhibition of growth at 10 µM (A498): 36%
inhibition of growth at 10 µM (UACC-62): 28%
inhibition of growth at 10 µM (ACHN): 24%
inhibition of growth at 10 µM (MDA-MB-468): 38%
inhibition at 10 µM (MCF7 [2]): 33%
inhibition of growth at 10 µM (RXF 393): 43%
inhibition of growth at 10 µM (SNB-19): 37%
IC50 (MCF7 [3]): 26.9 µM
inhibition of growth at 10 µM (SNB-75): 65%
IC50 [4]: 0.15 µM
inhibition of growth at 10 µM (OVCAR-4): 57%
inhibition of growth at 10 µM (Hs-578T): 39%

CCOC(=O)c1ccc(Nc2ccnc(SCC(=O)c3ccc(C#N)cc3)n2)cc1
IC50 [1]: 5.16 µM
inhibition of growth at 10 µM (UACC-257): 22%
inhibition of growth at 10 µM (SF-268): 22%
inhibition of growth at 10 µM (TK-10): 10%
inhibition of growth at 10 µM (IGROV-1): 21%
inhibition of growth at 10 µM (M14): 49%
inhibition of growth at 10 µM (SF-295): 24%
inhibition of growth at 10 µM (SF-539): 17%
inhibition of growth at 10 µM (HL-60(TB)): 24%
inhibition of growth at 10 µM (SW-620): 10%
inhibition of growth at 10 µM (COLO 205): 29%
inhibition of growth at 10 µM (A498): 50%
inhibition of growth at 10 µM (A549): 39%
inhibition of growth at 10 µM (UACC-62): 61%
inhibition of growth at 10 µM (ACHN): 20%
inhibition of growth at 10 µM (MDA-MB-468): 52%
inhibition of growth at 10 µM (HT-29): 24%
inhibition at 10 µM (MCF7 [2]): 84%
inhibition of growth at 10 µM (SNB-19): 10%
IC50 (MCF7 [3]): 13 µM
inhibition of growth at 10 µM (HCT-15): 24%
IC50 [4]: 0.39 µM
inhibition of growth at 10 µM (OVCAR-4): 35%
inhibition of growth at 10 µM (KM12): 45%
